Here are results for 16 compounds from ChEMBL document CHEMBL5030561, “Discovery of novel aminosaccharide-based sulfonamide derivatives as potential carbonic anhydrase II inhibitors” (Bioorg Med Chem Lett, 2021).

The CLint scaled is a measure of how fast metabolising enzymes remove a compound, apart from limits set by blood flow. A word on the half-life: it is how long it takes for the measured level to halve. By IC50 is commonly meant the point on the concentration scale where inhibition reaches its midpoint.

The nature of data set [1]: in vitro. Particulars: mouse, liver microsomes. In general terms: Liver microsomes are a subcellular fraction often used to study metabolism.
Description: Metabolic stability in mouse liver microsomes assessed as clearance
Data set [2] can be described thus: Cytotoxicity against HCEC cells assessed as cell viability at 1% by MTT assay relative to control. Format: cell-based. The note with it: human, read-out: Activity. A general note: Tetrazolium dyes change colour on reduction, which living cells bring about.
The nature of data set [3]: in vitro. Particulars: mouse, liver microsomes. The source holds these as a separate data set.
Description: Metabolic stability in mouse liver microsomes assessed as half-life
The target in a further data set is Carbonic anhydrase 9 (Homo sapiens, UniProt Q16790). The data set can be described thus: Inhibition of recombinant human CA9 using 4-nitrophenylacetate as substrate by esterase assay.
Data set [4] can be described thus: Solubility of compound in water. The format is physicochemical. Particulars: buffer.
The nature of data set [5]: Cytotoxicity against HCEC cells assessed as cell viability at 2 % by MTT assay relative to control. Format: cell-based. The note with it: human, read-out: Activity.
Another data set has as its target Carbonic anhydrase 1 (Homo sapiens, UniProt P00915). In words: Inhibition of recombinant human CA1 using 4-nitrophenylacetate as substrate by esterase assay.
For the next data set, the target named is Carbonic anhydrase 2 (Homo sapiens, UniProt P00918).
For data set [6], the species on record is Homo sapiens. In words: Selectivity ratio of IC50 for inhibition of recombinant human CA9 to IC50 for inhibition of recombinant CA2 using 4-nitrophenylacetate as substrate by esterase assay.
The species entered for data set [7] is Homo sapiens. The data set can be described thus: Selectivity ratio of IC50 for inhibition of recombinant human CA1 to IC50 for inhibition of recombinant human CA2 using 4-nitrophenylacetate as substrate by esterase assay.

Chain of Carbonic anhydrase 1 (P00915 whole entry): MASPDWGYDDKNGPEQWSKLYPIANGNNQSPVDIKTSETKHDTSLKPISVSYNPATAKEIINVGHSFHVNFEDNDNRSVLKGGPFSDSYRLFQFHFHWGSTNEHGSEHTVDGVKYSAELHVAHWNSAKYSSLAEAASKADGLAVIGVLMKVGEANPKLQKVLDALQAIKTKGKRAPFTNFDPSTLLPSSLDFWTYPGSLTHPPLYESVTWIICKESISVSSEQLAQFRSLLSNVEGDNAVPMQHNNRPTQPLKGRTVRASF
Description for Carbonic anhydrase 2: Inhibition of recombinant human CA2 using 4-nitrophenylacetate as substrate by esterase assay

`CCO[C@@H]1O[C@H](CNC(=O)c2ccc(S(N)(=O)=O)cc2)[C@@H](O)[C@H](O)[C@H]1N` displayed a CLint scaled in “in vitro [1]” of 1.56 mL/min/kg. For the same compound, the viability at 1 % in [2] stood at 76%. In “in vitro [3]”, this compound registered a half-life of 58.6 h. Moreover, the IC50 on Carbonic anhydrase 9 is 220 nM. In addition, the solubility in data set [4] was 2.3%. The viability at 2 % in data set [5] worked out at 71%.

`CCN[C@H]1CN(CCCOC)S(=O)(=O)c2sc(S(N)(=O)=O)cc21` [BRINZOLAMIDE] registered a solubility in data set [4] of 0.05%.

`CO[C@@H]1O[C@H](CNC(=O)c2ccc(S(N)(=O)=O)cc2)[C@@H](O)[C@H](O)[C@H]1O`: the CLint scaled in the data set “in vitro [1]” amounted to 1.56 mL/min/kg. Further, the viability at 1 % in data set [2] is 76%. Further, the values for the IC50 at Carbonic anhydrase 1, against Carbonic anhydrase 2 and at Carbonic anhydrase 9 were 2000 nM, 100 nM and 150 nM, respectively. In “in vitro [3]”, the half-life was determined as 58.6 h. For the same compound, the Selectivity ratio in the data set listed under Homo sapiens [6] turned out to be 1.5; in the data set filed under Homo sapiens [7] it was 20. This compound also returned a solubility in [4] of 2.5%. The viability at 2 % in data set [5] stood at 71%.

With `CO[C@@H]1O[C@H](CNC(=O)c2ccc(S(N)(=O)=O)cc2)[C@@H](O)[C@H](O)[C@H]1N`, in the data set “in vitro [1]”, the CLint scaled is 1.64 mL/min/kg. Further, in data set [2], the viability at 1 % was 76%. For the same compound, the values for the IC50 at Carbonic anhydrase 1, at Carbonic anhydrase 2 and at Carbonic anhydrase 9 were 2300 nM, 120 nM and 190 nM, respectively. Also, in “in vitro [3]”, the half-life was determined as 55.8 h. For the same compound, the Selectivity ratio in the data set listed under Homo sapiens [6] came out at 1.6; in the data set filed under Homo sapiens [7], 19. The compound further returned a solubility in data set [4] of 2.5%. Besides, the viability at 2 % in [5] was found to be 71%.

`CCO[C@@H]1O[C@H](CNC(=O)c2ccc(S(N)(=O)=O)cc2)[C@H](O)[C@H](O)[C@H]1O` yielded a CLint scaled in the data set “in vitro [1]” of 1.5 mL/min/kg. In addition, in [2], the viability at 1 % came out at 76%. In addition, in the data set “in vitro [3]”, the half-life worked out at 61.1 h. Moreover, at Carbonic anhydrase 9, the IC50 came out at 180 nM. Moreover, the solubility in data set [4] was 2.1%. Moreover, the viability at 2 % in [5] was 71%.

For `CCO[C@@H]1O[C@H](CNC(=O)c2ccc(S(N)(=O)=O)cc2)[C@@H](O)[C@H](O)[C@H]1O`, the CLint scaled in “in vitro [1]” was found to be 1.54 mL/min/kg. In addition, the viability at 1 % in [2] was found to be 76%. In the data set “in vitro [3]”, this compound had a half-life of 59.5 h. The IC50 at Carbonic anhydrase 9 was 190 nM. In data set [4], this compound displayed a solubility of 2.2%. The viability at 2 % in [5] was 71%.

`CCO[C@@H]1O[C@H](CNC(=O)c2ccc(S(N)(=O)=O)cc2)[C@@H](O)[C@H](O)[C@@H]1O` returned a CLint scaled in “in vitro [1]” of 1.48 mL/min/kg. The viability at 1 % in data set [2] was 76%. Besides, the half-life in the data set “in vitro [3]” was found to be 61.6 h. On Carbonic anhydrase 9, the IC50 turned out to be 200 nM. In addition, in data set [4], the solubility is given as 2%. Moreover, the viability at 2 % in data set [5] worked out at 71%.

Regarding `CO[C@@H]1O[C@H](CNC(=O)c2ccc(S(N)(=O)=O)cc2)[C@@H](O)[C@H](O)[C@@H]1O`, the CLint scaled in the data set “in vitro [1]” amounted to 1.6 mL/min/kg. For the same compound, the viability at 1 % in data set [2] worked out at 76%. For the same compound, the values for the IC50 at Carbonic anhydrase 1, at Carbonic anhydrase 2 and at Carbonic anhydrase 9 were 2900 nM, 70 nM and 170 nM, respectively. In addition, the half-life in “in vitro [3]” is 57.2 h. In addition, the Selectivity ratio in the data set listed under Homo sapiens [6] worked out at 2.4; in the data set filed under Homo sapiens [7] it was 41. This compound also registered a solubility in [4] of 2.3%. Also, the viability at 2 % in [5] was 71%.

`CCN[C@H]1C[C@H](C)S(=O)(=O)c2sc(S(N)(=O)=O)cc21` [DORZOLAMIDE] gave a solubility in data set [4] of 0.67%.

`CCCO[C@@H]1O[C@H](CNC(=O)c2ccc(S(N)(=O)=O)cc2)[C@@H](O)[C@H](O)[C@@H]1O` registered a CLint scaled in “in vitro [1]” of 1.42 mL/min/kg. For the same compound, in data set [2], the viability at 1 % was determined as 76%. The compound also gave a half-life in the data set “in vitro [3]” of 64.5 h. Besides, the IC50 at Carbonic anhydrase 9 turned out to be 260 nM. The solubility in [4] was 2.1%. Also, the viability at 2 % in data set [5] was 71%.

With `CCCO[C@@H]1O[C@H](CNC(=O)c2ccc(S(N)(=O)=O)cc2)[C@@H](O)[C@H](O)[C@H]1O`, the CLint scaled in “in vitro [1]” stood at 1.53 mL/min/kg. Besides, the viability at 1 % in [2] amounted to 76%. In the data set “in vitro [3]”, the half-life came to 59.9 h. Besides, the IC50 on Carbonic anhydrase 9 was 160 nM. For the same compound, the solubility in data set [4] is recorded as 2.1%. The viability at 2 % in data set [5] stood at 71%.

As for `CC(=O)Nc1nnc(S(N)(=O)=O)s1` [ACETAZOLAMIDE], the viability at 1 % in data set [2] is 40%. The compound further came in with a solubility in data set [4] of 0.21%. Moreover, the viability at 2 % in data set [5] amounted to 25%.

The compound `O=C(O)Cc1ccccc1Nc1c(Cl)cccc1Cl` [DICLOFENAC] returned a CLint scaled in the data set “in vitro [1]” of 137 mL/min/kg. In addition, the half-life in the data set “in vitro [3]” turned out to be 0.667 h.

In “in vitro [1]”, `CCCO[C@@H]1O[C@H](CNC(=O)c2ccc(S(N)(=O)=O)cc2)[C@H](O)[C@H](O)[C@H]1O` returned a CLint scaled of 1.38 mL/min/kg. Besides, the viability at 1 % in [2] is 76%. The compound further yielded a half-life in “in vitro [3]” of 66.4 h. In addition, the half-maximal inhibitory concentration (IC50) at Carbonic anhydrase 9 was 220 nM. The same compound registered a solubility in [4] of 2.2%. Moreover, the viability at 2 % in [5] was found to be 71%.

In “in vitro [1]”, `CCCO[C@@H]1O[C@H](CNC(=O)c2ccc(S(N)(=O)=O)cc2)[C@@H](O)[C@H](O)[C@H]1N` had a CLint scaled of 1.42 mL/min/kg. The viability at 1 % in data set [2] came to 76%. The half-life in the data set “in vitro [3]” stood at 64.4 h. Further, the IC50 at Carbonic anhydrase 9 is 290 nM. For the same compound, the solubility in [4] amounted to 2.2%. In addition, in data set [5], the viability at 2 % amounted to 71%.

`CO[C@@H]1O[C@H](CNC(=O)c2ccc(S(N)(=O)=O)cc2)[C@H](O)[C@H](O)[C@H]1O` displayed a CLint scaled in the data set “in vitro [1]” of 1.52 mL/min/kg. Further, in data set [2], the viability at 1 % amounted to 76%. Moreover, the IC50 on Carbonic anhydrase 1 was determined as 2700 nM; against Carbonic anhydrase 2 it was 60 nM; at Carbonic anhydrase 9 it was 200 nM. Besides, in the data set “in vitro [3]”, the half-life was 60.4 h. In addition, the Selectivity ratio is 3.3 in the data set listed under Homo sapiens [6] and 45 in the data set listed under Homo sapiens [7]. Moreover, the solubility in [4] stood at 2.1%. Moreover, the viability at 2 % in [5] was 71%.
